Patent US11701376B2, “Nutritional compositions comprising human milk oligosaccharides and nucleotides and uses thereof for treating and/or preventing enteric viral infection” (priority 2010, dated 2023)

Key:
[1] = test system: respiratory syncytial virus (RSV); assay: In vitro inhibition of viral infectivity, RSV (Example 46); format: cell-based; settings: co-incubation of virus with HMO at 1 or 10 mg/mL
Experimental: In this Example, the effect of purified human milk oligosaccharides (HMO) on in vitro inhibition of viral infectivity is analyzed.
Samples are prepared by co-incubation of a uniform virus dose of from about 500 units/mL to about 1,000 units/mL of one of three respiratory viruses: (1) respiratory syncytial virus (RSV); (2) human parainfluenza virus (HPIV3); or (3) H1N1 influenza virus with one of the following HMOs: (1) 3′-sialyllactose (3′SL); (2) 6′-sialyllactose (6′SL); (3) 3′-fucosyllactose (3′FL); (4) 2′-fucosyllactose (2′FL); (5) lacto-N-neotetraose (LNnT); or (6) sialic acid (SA). The HMOs are added at concentrations of either 1 mg/mL or 10 mg/mL.

[2] = test system: human parainfluenza virus (HPIV3); format: cell-based; settings: co-incubation of virus with HMO at 1 or 10 mg/mL
[3] = test system: H1N1 influenza virus; format: cell-based; settings: for IC50 (mg HMO/mL) H1N1 Influenza: co-incubation of virus with HMO at 1 or 10 mg/mL
[4] = test system: interferon-inducible protein 10 (IP-10); assay: IP-10 in supernatants of RSV-infected peripheral blood mononuclear cells (Example 49); format: cell-based, Human; settings: for IP-10 in virus-infected variables, both donors: RSV MOI 0.1, 0.1-0.5 mg/mL (LNnT 0.1-1 mg/mL); for reducing inflammation caused by RSV: pretreatment for 24 hours; for IP-10 level relative to uninfected controls: RSV-infected PBMC; for dampening virus-induced inflammation as measured by a decrease in IP-10, comparison: compared with 3′SL
Experimental: (§1) Specifically, either 3′SL or 6′SL is added, at concentrations of 0.1 mg/mL, 0.2 mg/mL, or 0.5 mg/mL to fresh peripheral blood mononuclear cells and incubated at 37° C. in 5% CO2 to pretreat the cells for approximately 24 hours. LNnT is added, at concentrations of 0.1 mg/mL, 0.2 mg/mL, or 1 mg/mL to fresh peripheral blood mononuclear cells and incubated at 37° C. in 5% CO2 to pretreat the cells for approximately 24 hours. Lactose is included as a carbohydrate control. Matched endotoxin unit concentration controls are included to allow differentiation of ingredient effects from inherent low levels of endotoxin. Some variables are then incubated with RSV at a multiplicity of infection (MOI) of 0.1 for approximately 1 hour at 37° C. in 5% in CO2. Uninfected control variables are incubated with medium for approximately 1 hour at 37° C. in 5% CO2. Supernatants are collected at 24 and 48 hours post-infection.
(§2) Cytokines are measured in supernatants for each variable at 24 and 48 hours to assess the effects of HMOs on the early immune response to RSV. Cytokines are measured using custom Bio-Plex Human cytokine kits from Bio-Rad. Results for interferon-inducible protein 10 (IP-10, also known as CXCL 10) are shown in FIGS. 3 and 4 for 3′SL and 6′SL, and in FIGS. 5 and 6 for LNnT. IP-10 is a CXC chemokine that attracts, binds to and activates the CXCR3 receptor on natural killer cells and memory T cells. IP-10 is expressed by monocytes and a number of other cells, and is induced by interferon. A positive correlation exists between RSV clinical disease severity in children (as measured by: length of hospital stay, fever, and number of days supplemental O2 is required) and serum IP-10. Therefore, a decrease in IP-10 signals a decrease in severity of RSV disease experienced.

[5] = test system: monocyte-derived cytokines; assay: Monocyte-derived cytokines in peripheral blood mononuclear cells with or without RSV (Example 49); format: cell-based, Human
Experimental: as §1, §2

[6] = test system: H1N1 influenza virus; format: cell-based; settings: HMO at 10 mg/mL, MDCK cells, FIG. 1
[7] = test system: interleukin 10 (IL-10); assay: IL-10 in supernatants of peripheral blood mononuclear cells with or without RSV (Example 49); format: cell-based, Human; settings: in the presence or absence of RSV
Experimental: as §1
Cytokines are measured in supernatants for each variable at 24 and 48 hours to assess the effects of HMOs on the early immune response to RSV. Cytokines are measured using custom Bio-Plex Human cytokine kits from Bio-Rad. […] A positive correlation exists between RSV clinical disease severity in children (as measured by: length of hospital stay, fever, and number of days supplemental O2 is required) and serum IP-10. […]

[8] = test system: rotavirus; assay: NSP4 mRNA expression in rotavirus-treated ileal loops of piglets (Example 50); format: in vivo; settings: HMO about 2 mg/mL plus rotavirus, 6 hours, vs RV and media
Experimental: Specifically, HMO and nucleotide treatment within the ileal lumen of both healthy and acutely rotavirus-infected piglets is analyzed.
Two groups of piglets (both n=9) are fed from age 48 hours to age 21 days either a low nucleotide formula comprising about 72 mg/L of a nucleotide mixture or a high nucleotide formula comprising about 320 mg/L of a nucleotide mixture.
At day 21, a midline laparotomy is performed and six loops of ilium are isolated in situ. Each loop is about 10 cm long and is followed by an inter-loop segment of about 2 cm. […]
The following treatments are injected into the loops: media; LNnT; an acidic HMO mixture comprising about 40 wt % 6′SL, about 10 wt % 3′SL, and about 50 wt % sialic acid; media and rotavirus; LNnT and rotavirus; and the acidic HMO mixture comprising about 40 wt % 6′SL, about 10 wt % 3′SL, and about 50 wt % sialic acid and rotavirus. […] Each loop is treated for 6 hours, and post-treatment reverse transcriptase products from ilium mucosal cells are analyzed by quantitative real-time PCR in TaqMan gene expression assays of the target genes NSP4, IL-8, and TNF-α. […] The expression levels of genes of interest are standardized to RPL19 mRNA and expressed as fold differences which correspond to a ratio to the mean value for the control group.

[9] = in the presence or absence of the virus

Row | SMILES | IC50 (mg HMO/mL) RSV [1] | IC50 (mg HMO/mL) HPIV3 [2] | anti-viral activity, H1N1 influenza virus ([3]; HMO at 1 mg/mL) | IC50 (mg HMO/mL) H1N1 Influenza [3] | IP-10 in virus-infected variables, both donors ([4]; 24 hours pretreatment) | RSV-induced IP-10, Donor B ([4]; Donor B, 24 hours pretreatment, RSV MOI 0.1) | RSV-induced IP-10, Donor E ([4]; Donor E, 24 hours pretreatment, RSV MOI 0.1) | reducing inflammation caused by RSV [4] | immunomodulation, production of monocyte-derived cytokines [5, 9] | inhibition of virus infectivity [6] | IP-10 level relative to uninfected controls [4] | dampening virus-induced inflammation as measured by a decrease in IP-10, comparison [4] | IL-10 concentration [7] | immunomodulation, production of monocyte-derived cytokines ([5]; in the absence of the virus) | NSP4 expression ([8]; high nucleotide formula fed group (about 320 mg/L)) | NSP4 expression ([8]; low nucleotide formula fed group (about 72 mg/L))
1 | CC(=O)N[C@H]1[C@H]([C@H](O)[C@H](O)CO)O[C@@](O[C@H]2[C@@H](O)[C@@H](CO)O[C@@H](O[C@H]3[C@H](O)[C@@H](O)C(O)O[C@@H]3CO)[C@@H]2O)(C(=O)O)C[C@@H]1O (some centres unmarked) [3′SL, 3′-sialyllactose] | >10 mg HMO/mL | >10 mg HMO/mL | inhibited | ~5 mg HMO/mL | dampen RSV-induced IP-10 | not effective | downregulates RSV-induced IP-10 | effective in reducing inflammation caused by RSV | immunomodulatory |  |  |  |  |  |  | 
2 | CC(=O)N[C@H]1[C@H]([C@H](O)[C@H](O)CO)O[C@@](OC[C@H]2O[C@@H](O[C@H]3[C@H](O)[C@@H](O)[C@H](O)O[C@@H]3CO)[C@H](O)[C@@H](O)[C@H]2O)(C(=O)O)C[C@@H]1O [6′SL, 6′-sialyllactose] | >10 mg HMO/mL | >10 mg HMO/mL |  | ~10 mg HMO/mL | clearly downregulates IP-10 |  |  | effective in reducing inflammation caused by RSV |  | approximately 60% | reduce IP-10 to levels found in uninfected controls | more effective than 3′SL | increases interleukin 10 (IL-10) concentration in a dose-dependent manner | immunomodulatory |  | 
3 | CC(=O)N[C@H]1[C@H](O[C@H]2[C@@H](O)[C@@H](CO)O[C@@H](O[C@H]3[C@H](O)[C@@H](O)C(O)O[C@@H]3CO)[C@@H]2O)O[C@H](CO)[C@@H](O[C@@H]2O[C@H](CO)[C@H](O)[C@H](O)[C@H]2O)[C@@H]1O (mixture of isomers) [LNnT, lacto-N-neotetraose] | >10 mg HMO/mL |  |  | >10 mg HMO/mL | clearly downregulates IP-10 |  |  | effective in reducing inflammation caused by RSV | immunomodulatory |  | reduce IP-10 to levels found in uninfected controls | more effective than 3′SL | increases IL-10 concentration in a dose-dependent manner |  | reduced NSP4 expression | reduced NSP4 expression
